From the NIST ThermoML archive (doi:10.1007/s10765-011-1111-y) come the findings set out here.

Where “and” joins values, the source holds several entries; their conditions need not be identical. Identical values can stand only once. Numbers after ± are expanded uncertainties.

This data set is described as follows: mn = molality of the nth substance listed, in mol/kg. The following applies: 101 kPa, Liquid, m1 = 1.

Usually viscosity stands for the resistance of a fluid to flow. On to `CC(=O)[O-].[Na+]` [sodium ethanoate] + O, for which the viscosity is reported as 1.095 ± 0.028 mPa·s (303.15 K); 1.005 ± 0.026 mPa·s (308.15 K); 0.9052 ± 0.024 mPa·s (313.15 K); 0.801 ± 0.021 mPa·s (318.15 K); 0.721 ± 0.019 mPa·s (323.15 K).

In the case of `CC(=O)[O-].[K+]` [potassium ethanoate] + O, the viscosity is, setting by setting: (303.15 K) 0.975 ± 0.025 mPa·s; (308.15 K) 0.8864 ± 0.023 mPa·s; (313.15 K) 0.805 ± 0.021 mPa·s; (318.15 K) 0.719 ± 0.019 mPa·s; (323.15 K) 0.655 ± 0.018 mPa·s.

`CC(=O)[O-].CC(=O)[O-].[Ca+2]` [calcium acetate] + O: the viscosity reads like this: (303.15 K) 1.545 ± 0.038 mPa·s and 1.563 ± 0.038 mPa·s; (308.15 K) 1.412 ± 0.035 mPa·s; (313.15 K) 1.265 ± 0.032 mPa·s; (318.15 K) 1.127 ± 0.029 mPa·s; (323.15 K) 0.999 ± 0.026 mPa·s.
